# Where a chain is given by its changes, count along the chain named. Several values for one entry are separate records, joined by “and”; a condition that tells them apart may be missing. Identical values can stand only once. Like-named read-outs stand apart in the source and are kept apart here.
# Key:
# Assay type in all cases: cell-based
# hTA1 F195T = molecular target: T1, hTA1 F195T (Homo sapiens, UniProt Q96RJ0, F195T); assay: GloSensor cAMP accumulation assay, F195T mutant;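 also: cells transiently co-expressing HA-FLAG-tagged hTA1 and the GloSensor cAMP biosensor, luminescence read 30 min after agonist addition at room temperature, concentration-response fitted by nonlinear regression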
# T1 construct: expressed in transfected cells; host or cells: HEK293T
# T1 sequence (Q96RJ0 1-339 F195T): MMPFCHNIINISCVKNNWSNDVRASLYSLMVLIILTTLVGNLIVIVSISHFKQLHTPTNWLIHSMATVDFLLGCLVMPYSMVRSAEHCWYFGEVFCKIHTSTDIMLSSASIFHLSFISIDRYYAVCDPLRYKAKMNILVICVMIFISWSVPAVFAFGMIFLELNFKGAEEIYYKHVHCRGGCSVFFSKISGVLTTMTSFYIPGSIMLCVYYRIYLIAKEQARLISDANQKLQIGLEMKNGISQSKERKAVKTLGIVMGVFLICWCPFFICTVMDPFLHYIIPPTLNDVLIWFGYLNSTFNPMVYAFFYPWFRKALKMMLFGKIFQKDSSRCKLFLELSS
# hTA1 I290Y = molecular target: T2, hTA1 I290Y (Homo sapiens, UniProt Q96RJ0, I290Y); assay: GloSensor cAMP accumulation assay, I290Y mutant; conditions: for cAMP accumulation response, normalized (concentration-response source data, single replicate values): hTA1 I290Y (N=3), log[Compound];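 as to cAMP accumulation response, normalized (concentration-response source data, single replicate values): normalized to the maximum response of β-PEA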
# T2 construct: expressed in transfected cells; host or cells: HEK293T
# T2 sequence (Q96RJ0 1-339 I290Y): T1 sequence (Q96RJ0 1-339 F195T) with T195F, I290Y
# hTA1 S107C = molecular target: T3, hTA1 S107C (Homo sapiens, UniProt Q96RJ0, S107C); assay: GloSensor cAMP accumulation assay, S107C mutant;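 also: cells transiently co-expressing receptor and GloSensor biosensor, luminescence read after 30 min agonist exposure at room temperature, concentration-response fitted by nonlinear regression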
# T3 construct: expressed in transfected cells; host or cells: HEK293T
# T3 sequence (Q96RJ0 1-339 S107C): T1 sequence (Q96RJ0 1-339 F195T) with S107C, T195F
# hTA1 T271A = molecular target: T4, hTA1 T271A (Homo sapiens, UniProt Q96RJ0, T271A); assay: GloSensor cAMP accumulation assay, T271A mutant
# T4 construct: expressed in transfected cells; host or cells: HEK293T
# T4 sequence (Q96RJ0 1-339 T271A): T1 sequence (Q96RJ0 1-339 F195T) with T195F, T271A
# hTA1 C88S = molecular target: T5, hTA1 C88S (Homo sapiens, UniProt Q96RJ0, C88S); assay: GloSensor cAMP accumulation assay, C88S mutant; conditions: C88S
# T5 construct: expressed in transfected cells; host or cells: HEK293T
# T5 sequence (Q96RJ0 1-339 C88S): T1 sequence (Q96RJ0 1-339 F195T) with C88S, T195F
structure (smiles),measurement,setting,value
CCc1[nH]nc(C(=O)Nc2ccc([C@H]3CNCCO3)cc2)c1C [ralmitaront],"ΔpEC50 values (each mutant value - WT average), Mean","hTA1 F195T; F195T mutant minus WT average, Figure 5B",0.04071 and 0.07112
same,"Emax values, Mean","hTA1 F195T; F195T mutant, Figure 5B, β-PEA = 100, each row one independent experiment (3 replicates)",86.6537
same,Emax,"hTA1 F195T; F195T mutant, Figure 5B, β-PEA = 100, each row one independent experiment (3 replicates), read-out: Emax values, Mean",67.7%
same,Emax,"hTA1 F195T; F195T, n=2, read-out: Span ± SEM (Emax normalized to β-PEA)",77.2 ± 9.48%
same,Emax,"hTA1 I290Y; I290Y, read-out: Span ± SEM (Emax normalized to β-PEA)",17.6 ± 2.61%
same,"Emax values, Mean","hTA1 I290Y; I290Y, single experiments (3 replicates each), β-PEA = 100",14.0517 and 22.6718 and 15.9842
same,"cAMP accumulation response, normalized (concentration-response source data, single replicate values)",hTA1 I290Y; M = -5,15.3564 and 19.3577 and 13.5096 and 22.3431 and 15.3808 and 18.6787 and 17.3474 and 21.8593 and 16.2195
same,"cAMP accumulation response, normalized (concentration-response source data, single replicate values)",hTA1 I290Y; M = -5.522,12.5863 and 17.5109 and 9.201 and 20.8774 and 14.2815 and 17.213 and 8.324 and 11.7076 and 15.0915
same,"cAMP accumulation response, normalized (concentration-response source data, single replicate values)",hTA1 I290Y; M = -6,6.738 and 15.972 and 11.3551 and 15.0144 and 31.5041 and 26.3739 and 8.324 and 3.812 and 11.7076
same,"cAMP accumulation response, normalized (concentration-response source data, single replicate values)",hTA1 I290Y; M = -6.522,9.508 and 11.6629 and 4.584 and 19.0452 and 19.7781 and 16.4801 and 8.324 (2×) and 15.0915
same,"cAMP accumulation response, normalized (concentration-response source data, single replicate values)",hTA1 I290Y; M = -7,5.199 and 18.1265 and 8.893 and 8.052 and 10.6171 and 15.0144 and 6.068 (2×) and 10.5796
same,"cAMP accumulation response, normalized (concentration-response source data, single replicate values)",hTA1 I290Y; M = -7.522,5.815 and 14.7408 and 3.6603 and 6.22 and 6.586 and 4.754 and 1.556 and -0.7002 and 0.4278
same,"cAMP accumulation response, normalized (concentration-response source data, single replicate values)",hTA1 I290Y; M = -8,4.584 and 6.738 and 6.43 and 5.853 and 4.388 and 1.823 and -2.956 and -1.828 and -0.7002
same,"cAMP accumulation response, normalized (concentration-response source data, single replicate values)",hTA1 I290Y; M = -8.522,-1.264 and 1.506 and 0.8902 and -4.04 and -4.407 and 4.021 and -5.212 and -4.0841 and -2.956
same,"cAMP accumulation response, normalized (concentration-response source data, single replicate values)",hTA1 I290Y; M = -9,-2.496 and -0.341 and -1.88 and -5.14 and -1.109 and 9.151 and -5.212 and -4.0841 and -2.956
same,"cAMP accumulation response, normalized (concentration-response source data, single replicate values)",hTA1 I290Y; M = -9.522,-3.7267 and -1.264 and -2.803 and -1.475 and -4.407 and 4.388 and -4.0841 (2×) and -2.956
same,"cAMP accumulation response, normalized (concentration-response source data, single replicate values)",hTA1 I290Y; M = -10,-2.188 (2×) and -0.6488 and -5.873 and -0.7424 and -6.239 and -2.956 (2×) and -1.828
same,"cAMP accumulation response, normalized (concentration-response source data, single replicate values)",hTA1 I290Y; M = -10.522,-2.496
same,ΔEmax values (each mutant value - WT average),hTA1 S107C; S107C mutant minus WT average,1.2358
same,"Emax values, Mean","hTA1 S107C; S107C mutant, β-PEA = 100, each line an independent experiment, 3 replicates",57.0471
same,Emax,"hTA1 S107C; S107C mutant, β-PEA = 100, each line an independent experiment, 3 replicates, read-out: Emax values (Mean)",41.3%
same,Emax,"hTA1 S107C; S107C, n=2, read-out: Span ± SEM (Emax normalized to β-PEA)",49.2 ± 7.85%
same,"ΔpEC50 values (each mutant value - WT average), Mean","hTA1 T271A; T271A mutant minus WT average, Figure 5B",-0.01384
same,"Emax values, Mean","hTA1 T271A; T271A mutant, Figure 5B, β-PEA = 100, each row one independent experiment (3 replicates)",56.995
same,Emax,"hTA1 T271A; T271A mutant, Figure 5B, β-PEA = 100, each row one independent experiment (3 replicates), read-out: Emax values, Mean",65.2%
same,Emax,"hTA1 T271A; T271A, n=2, read-out: Span ± SEM (Emax normalized to β-PEA)",61.1 ± 4.08%
same,Emax values,hTA1 C88S; Mean of fit per experiment,92.8994 and 62.9388
same,Emax,"hTA1 C88S; n=2, read-out: Span ± SEM (Emax normalized to β-PEA)",77.9 ± 15%
same,Emax,"hTA1 C88S; relative to β-PEA, read-out: Emax",77.9%

# Source: PMC10762035, “Molecular basis of human trace amine-associated receptor 1 activation” (Nature Communications, 2024)
